Measurements as given in patent US9585905B2, “Sweet taste receptor antagonist compositions” (Four LLC, priority 2014, dated 2017).
“Also recorded” adds a separate entry of the source. Like-named read-outs stand apart in the source and are kept apart here.

Columns and labels:
[1] = system: sweet taste (10% sucrose reference); assay: Duration of sweet taste blockade: sensory panelist rates sweetness intensity (SI) of 10% sucrose after 5 min oral exposure to sample; type: in vivo, human; conditions: for SI: 0-10 scale, 10% sucrose=10; for sweet taste inhibition following exposure of the oral cavity (in words): in vivo
Procedure: A standard method was developed to quantify the duration of sweet taste blockade for the gymnemic acid compositions of the present invention. […] In all cases, sucrose was used as the sweetener in sweet taste blockade quantification. Thus, 10%, 8%, 6%, 4%, and 2% (w/v) sucrose solutions in reverse osmosis (RO) purified water were freshly prepared and, at the beginning of each experiment, 15 mL samples of each sucrose solution were used to calibrate sensory panelist on sweetness intensity. The sensory panelist is described as a person with training in sensory evaluation with at least 1 year of experience as a sensory panelist in the area of gustatation, and preferably with training in descriptive analysis. Standard scaling methodology was used for quantification of sweetness intensity (SI) on the following scale: • 10% sucrose=10, • 8% sucrose=8, • 6% sucrose=6, • 4% sucrose=4, • 2% sucrose=2, and • 0% sucrose=0.
Following panelist calibration with the sucrose reference standards, the panelist rinsed their mouth with 15 mL RO water and the sweetness inhibitor sample in 15 mL RO water was then immediately taken into the mouth and gently agitated for 5 minutes. The sweet taste inhibitor sample was then expectorated and a 15 mL sample of the 10% sucrose reference solution was then immediately re-tasted, perceived SI within 15 seconds was rated on the 0-10 scale, the sample expectorated, and the mouth rinsed vigorously with 15 mL RO water. The 10% sucrose sample was then re-tasted every 15 min and SI rated. The panelist was asked to make comments on the observations of non-sweet taste attributes at each sucrose reference tasting interval.

[2] = system: bitter taste of bitter compounds (quinine, denatonium benzoate, tetralone, sucrose octaacetate, pseudoephedrine, dextromethorphan); conditions: cited from earlier work
[3] = 10% sucrose re-tasted at 15 min
[4] = 10% sucrose re-tasted at 30 min
[5] = 10% sucrose re-tasted at 45 min
[6] = 10% sucrose re-tasted at 60 min
[7] = 10% sucrose re-tasted at 75 min
[8] = 10% sucrose re-tasted at 90 min
[9] = 10% sucrose re-tasted at 105 min
[10] = 10% sucrose re-tasted at 120 min
[11] = 10% sucrose tasted at 0 min after expectoration of sample (in 15 mL RO water, held 5 min)

| Molecule | SI [1, 3] | SI [1, 4] | SI [1, 5] | SI [1, 6] | SI [1, 7] | SI [1, 8] | SI [1, 9] | SI [1, 10] | SI [1, 11] | sweet taste inhibition following exposure of the oral cavity (in words) [1] | bitterness inhibitory activity ([2]; against denatonium benzoate) | bitterness inhibitory activity ([2]; against dextromethorphan) | bitterness inhibitory activity ([2]; against pseudoephedrine) | bitterness inhibitory activity ([2]; against quinine) | bitterness inhibitory activity ([2]; against sucrose octaacetate) | bitterness inhibitory activity ([2]; against tetralone) | inhibition of the bitterness of quinine hydrochloride (QHCl) ([2]; up to) |
| --- | --- | --- | --- | --- | --- | --- | --- | --- | --- | --- | --- | --- | --- | --- | --- | --- | --- |
| COc1ccc(OC(C)C(=O)O)cc1 (stereo not drawn) [Lactisole] | 10 | 10 | 10 | 10 | 10 | 10 | 10 | 10 | 12 | no sweet taste inhibition was observed; also recorded: caused no sweetness inhibition following expectoration |  |  |  |  |  |  |  |
| O=S(=O)([O-])[O-].[Zn+2] [zinc sulfate] |  |  |  |  |  |  |  |  |  |  | effective bitterness inhibitor | no significant bitterness inhibitory activity | no significant bitterness inhibitory activity | effective bitterness inhibitor | no significant bitterness inhibitory activity | effective bitterness inhibitor | up to 70% |
| Miraculin (protein, UniProt P13087 30-220, looked up) Miraculin: DSAPNPVLDIDGEKLRTGTNYYIVPVLRDHGGGLTVSATTPNGTFVCPPRVVQTRKEVDHDRPLAFFPENPKEDVVRVSTDLNINFSAFMPCRWTSSTVWRLDKYDESTGQYFVTIGGVKGNPGPETISSWFKIEEFCGSGFYKLVFCPTVCGSCKVKCGDVGIYIDQKGRRRLALSDKPFAFEFNKTVYF | 10 | 10 | 10 | 10 | 10 | 10 | 10 | 10 | 10 | No sweet taste inhibitory effect was observed |  |  |  |  |  |  |  |
